These results are taken from US7396849B2, “4-(Condensed cyclicmethyl)-imidazole-2-thiones acting as α2 adrenergic agonists” (Allergan, Inc., priority 2004, dated 2008).

In series [1] the target is T1, alpha2B adrenergic receptors (Homo sapiens, UniProt P18089).
T1 construct: expressed in transfected cells; host or cells: NIH-3T3 cells
T1 sequence (P18089 1-450): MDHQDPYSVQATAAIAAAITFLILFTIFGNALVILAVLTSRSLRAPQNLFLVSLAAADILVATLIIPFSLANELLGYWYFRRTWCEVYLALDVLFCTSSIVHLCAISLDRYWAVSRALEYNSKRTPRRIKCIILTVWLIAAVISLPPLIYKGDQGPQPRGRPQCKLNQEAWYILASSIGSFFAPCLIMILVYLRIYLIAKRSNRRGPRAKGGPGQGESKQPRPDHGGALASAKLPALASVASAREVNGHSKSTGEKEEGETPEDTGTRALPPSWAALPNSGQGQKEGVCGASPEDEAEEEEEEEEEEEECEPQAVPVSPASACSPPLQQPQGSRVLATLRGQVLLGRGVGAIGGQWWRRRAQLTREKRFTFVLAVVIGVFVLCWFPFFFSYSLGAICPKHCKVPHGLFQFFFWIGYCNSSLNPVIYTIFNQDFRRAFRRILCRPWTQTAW
Kind of series: RSAT assay (Receptor Selection and Amplification Technology), alpha2B. Type of series: cell-based. The settings on record: NIH-3T3 cells, ratio of maximal effect to that of standard full agonist brimonidine, NA = not active below 10 micromolar. An excerpt: The imidazole-2-thione compounds of the invention are agonists of alpha2 adrenergic receptors. Many compounds of the invention are specific or selective agonists of alpha2B and/or to a lesser extent alpha2C adrenergic receptors, in preference over alpha2A adrenergic receptors. […] 76, pp. 308-311 (incorporated herein by reference) and is also described below. Another reference pertinent to this assay is Conklin et al. (1993) Nature 363:274-6, Receptor Selection and Amplification Technology (RSAT) assay, also incorporated herein by reference.
The RSAT assay measures a receptor-mediated loss of contact inhibition that results in selective proliferation of receptor-containing cells in a mixed population of confluent cells. The increase in cell number is assessed with an appropriate transfected marker gene such as β-galactosidase, the activity of which can be easily measured in a 96-well format. Receptors that activate the G protein, Gq, elicit this response. Alpha2 receptors, which normally couple to Gi, activate the RSAT response when coexpressed with a hybrid Gq protein that has a Gi receptor recognition domain, called Gq/i5.
NIH-3T3 cells are plated at a density of 2×10^6 cells in 15 cm dishes and maintained in Dulbecco's modified Eagle's medium supplemented with 10% calf serum. One day later, cells are cotransfected by calcium phosphate precipitation with mammalian expression plasmids encoding p-SV-β-galactosidase (5-10 μg), receptor (1-2 μg) and G protein (1-2 μg). 40 μg salmon sperm DNA may also be included in the transfection mixture. Fresh media is added on the following day and 1-2 days later, cells are harvested and frozen in 50 assay aliquots. Cells are thawed and 100 μl added to 100 μl aliquots of various concentrations of drugs in triplicate in 96-well dishes. Incubations continue 72-96 hr at 37° C. After washing with phosphate-buffered saline, β-galactosidase enzyme activity is determined by adding 200 μl of the chromogenic substrate (consisting of 3.5 mM o-nitrophenyl-β-D-galactopyranoside and 0.5% nonidet P-40 in phosphate buffered saline), incubating overnight at 30° C. and measuring optical density at 420 nm. The absorbance is a measure of enzyme activity, which depends on cell number and reflects a receptor-mediated cell proliferation. The efficacy or intrinsic activity is calculated as a ratio of the maximal effect of the drug to the maximal effect of a standard full agonist for each receptor subtype. Brimonidine, also called UK14304, the chemical structure of which is shown below, is used as the standard agonist for the alpha2A, alpha2B and alpha2C receptors.
The results of the RSAT assay with several exemplary compounds of the invention are disclosed in Table 1 above together with the chemical formulas of these examplary compounds. NA stands for “not active” at cohcentrations less than 10 micromolar.

In series [2] the test system is Chung Model of Neuropathic Pain. As to the kind of experiment: Chung model of neuropathic pain (tactile allodynia, von Frey hairs). Type of series: in vivo, rats. The settings on record: 30 min following drug administration. An excerpt: A model in accordance with Kim and Chung 1992, Pain […], pp 355-363 (Chung model), for chronic pain (in particular peripheral neuropathy) involves the surgical ligation of the L5 (and optionally the L6) spinal nerves on one side in experimental animals. Rats recovering from the surgery gain weight and display a level of general activity similar to that of normal rats. However, these rats develop abnormalities of the foot, wherein the hindpaw is moderately everted and the toes are held together. More importantly, the hindpaw on the side affected by the surgery appears to become sensitive to pain from low-threshold mechanical stimuli, such as that producing a faint sensation of touch in a human, within about 1 week following surgery. This sensitivity to normally non-painful touch is called “tactile allodynia” and lasts for at least two months. The response includes lifting the affected hindpaw to escape from the stimulus, licking the paw and holding it in the air for many seconds. None of these responses is normally seen in the control group.
Rats are anesthetized before surgery. The surgical site is shaved and prepared either with betadine or Novacaine. Incision is made from the thoracic vertebra XIII down toward the sacrum. Muscle tissue is separated from the spinal vertebra (left side) at the L4-S2 levels. The L6 vertebra is located and the transverse process is carefully removed with a small rongeur to expose the L4-L6 spinal nerves. The L5 and L6 spinal nerves are isolated and tightly ligated with 6-0 silk thread. The same procedure is done on the right side as a control, except no ligation of the spinal nerves is performed.
A complete hemostasis is confirmed, then the wounds are sutured. A small amount of antibiotic ointment is applied to the incised area, and the rat is transferred to the recovery plastic cage under a regulated heat-temperature lamp. On the day of the experiment, at least seven days after the surgery, typically six rats per test group are administered the test drugs by intraperitoneal (i.p.) injection or oral gavage. […], the compounds are formulated in d H2O and given in a volume of 1 ml/kg body weight using an 18-gauge, 3 inch gavage needle that is slowly inserted through the esophagus into the stomach.
Tactile allodynia is measured prior to and 30 minutes after drug administration using von Frey hairs that are a series of fine hairs with incremental differences in stiffness. Rats are placed in a plastic cage with a wire mesh bottom and allowed to acclimate for approximately 30 minutes. The von Frey hairs are applied perpendicularly through the mesh to the mid-plantar region of the rats' hindpaw with sufficient force to cause slight buckling and held for 6-8 seconds. The applied force has been calculated to range from 0.41 to 15.1 grams. If the paw is sharply withdrawn, it is considered a positive response. A normal animal will not respond to stimuli in this range, but a surgically ligated paw will be withdrawn in response to a 1-2 gram hair. The 50% paw withdrawal threshold is determined using the method of Dixon, W. J., Ann. Rev. Pharmacol. Toxicol. 20:441-462 (1980) hereby incorporated by reference. The post-drug threshold is compared to the pre-drug threshold and the percent reversal of tactile sensitivity is calculated based on a normal threshold of 15.1 grams.
All measurements 30 min following drug administration. p value<0.001 compared to pretreatment values.

Another series concerns Sprague-Dawley rats. Kind of series: Sedative activity (exploratory behavior after i.p. injection). The settings on record: intraperitoneally, up to a dose of 1 mg/kg. In kind it is in vivo. The procedure:
To test sedation, six male Sprague-Dawley rats are given up to 3 mg/kg of the test compound in a saline or DMSO vehicle by intraperitoneal injection (i.p.). Sedation is graded 30 minutes following administration of the drug by monitoring locomotor skills as follows.
The Sprague-Dawley rats are weighed and 1 ml/kg body weight of an appropriate concentration (ie. 3 mg/ml for a final dose of 3 mg/kg) drug solution is injected intraperitoneally. Typically the test compound is formulated in approximately 10 to 50% DMSO. The results are compared to controls that are injected with 1 ml/kg saline or 10 to 50% DMSO. Rat activity is then determined 30 minutes after injection of the drug solution. Rats are placed in a dark covered chamber and a digicom analyzer (Omnitech Electronic) quantitates their exploratory behavior for a five-minute period. The machine records each time the rat interrupts an array of 32 photoelectric beams in the X and Y orientation.
Effects on Cardiovascular System

For `CC(c1c[nH]c(=S)[nH]1)c1cccc2ncccc12` (racemic) [Compound 7, 4-(1-quinolin-5-yl-ethyl)-1,3-dihydro-imidazole-2-thione], the “Intrinsic Activity Alpha 2B” value in series [1] amounted to 0.90. Moreover, the “% Pain Reversal ± SEM” value in series [2] (10 μg/kg i.p.) is reported as 2.9 ± 0.7%; in series [2] (30 μg/kg i.p.), 65.8 ± 6.1%; in series [2] (30 μg/kg p.o.), 77.0 ± 5.1%; in series [2] (300 μg/kg i.p.), 77.7 ± 7.2%. Besides, the sedative effect entry in the series with Sprague-Dawley rats was “no sedative effect”.

As for `CC(c1c[nH]c(=S)[nH]1)c1cccc2ncccc12` (single isomer, unassigned; (-)) [Compound 15, (−)-4-(1-quinolin-5-yl-ethyl)-1,3-dihydro-imidazole-2-thione], in series [1], the “Intrinsic Activity Alpha 2B” value turned out to be 0.89. For the same molecule, the “% Pain Reversal ± SEM” value was determined as 58.0 ± 5.3% in series [2] (3 μg/kg p.o.), 78.0 ± 4.6% in series [2] (10 μg/kg p.o.), 82.0 ± 6.2% in series [2] (30 μg/kg p.o.) and 81.0 ± 8.1% in series [2] (100 μg/kg p.o.). Besides, the sedative effect entry with Sprague-Dawley rats was “no sedative effect”.
